Assays:
[1] = test system: NCI 60 cancer cell lines; assay: NCI single dose (10 µM) SRB screen, mean over panel; type: cell-based, human; conditions: mean over 60 cell lines, 48 h
[2] = test system: OVCAR-5; assay: NCI single dose (10 µM) SRB screen; type: cell-based, human; conditions: ovarian cancer, 48 h
[3] = test system: COLO 205; assay: NCI single dose (10 µM) SRB screen; type: cell-based, human; conditions: colon cancer, 48 h
[4] = test system: HCC-2998; assay: NCI single dose (10 µM) SRB screen; type: cell-based, human; conditions: colon cancer, 48 h
[5] = test system: SK-OV-3; assay: NCI single dose (10 µM) SRB screen; type: cell-based, human; conditions: ovarian cancer, 48 h
[6] = test system: KM12; assay: NCI single dose (10 µM) SRB screen; type: cell-based, human; conditions: colon cancer, 48 h
[7] = test system: RPMI-8226; assay: NCI single dose (10 µM) SRB screen; type: cell-based, human; conditions: leukaemia, 48 h
[8] = test system: MOLT-4; assay: NCI single dose (10 µM) SRB screen; type: cell-based, human; conditions: leukaemia, 48 h
[9] = test system: MDA-MB-231; assay: NCI single dose (10 µM) SRB screen; type: cell-based, human; conditions: breast cancer, 48 h
[10] = test system: PC-3; assay: NCI single dose (10 µM) SRB screen; type: cell-based, human; conditions: prostate cancer, 48 h
[11] = test system: K-562; assay: NCI single dose (10 µM) SRB screen; type: cell-based, human; conditions: leukaemia, 48 h
[12] = test system: Bacillus subtilis; assay: Agar well diffusion method
[13] = test system: SW-620; assay: NCI single dose (10 µM) SRB screen; type: cell-based, human; conditions: colon cancer, 48 h
[14] = test system: Candida albicans; assay: Agar well diffusion method
[15] = test system: HCT-15; assay: NCI single dose (10 µM) SRB screen; type: cell-based, human; conditions: colon cancer, 48 h
[16] = test system: SF-295; assay: NCI single dose (10 µM) SRB screen; type: cell-based, human; conditions: CNS cancer, 48 h
[17] = test system: HOP-92; assay: NCI single dose (10 µM) SRB screen; type: cell-based, human; conditions: non-small cell lung cancer, 48 h
[18] = test system: SK-MEL-2; assay: NCI single dose (10 µM) SRB screen; type: cell-based, human; conditions: melanoma, 48 h
[19] = test system: T-47D; assay: NCI single dose (10 µM) SRB screen; type: cell-based, human; conditions: breast cancer, 48 h
[20] = test system: NCI/ADR-RES; assay: NCI single dose (10 µM) SRB screen; type: cell-based, human; conditions: ovarian cancer, 48 h
[21] = test system: NCI-H226; assay: NCI single dose (10 µM) SRB screen; type: cell-based, human; conditions: non-small cell lung cancer, 48 h
[22] = test system: SK-MEL-28; assay: NCI single dose (10 µM) SRB screen; type: cell-based, human; conditions: melanoma, 48 h
[23] = test system: U251; assay: NCI single dose (10 µM) SRB screen; type: cell-based, human; conditions: CNS cancer, 48 h
[24] = test system: MALME-3M; assay: NCI single dose (10 µM) SRB screen; type: cell-based, human; conditions: melanoma, 48 h
[25] = test system: OVCAR-3; assay: NCI single dose (10 µM) SRB screen; type: cell-based, human; conditions: ovarian cancer, 48 h
[26] = test system: EKVX; assay: NCI single dose (10 µM) SRB screen; type: cell-based, human; conditions: non-small cell lung cancer, 48 h
[27] = test system: HCT-116; assay: NCI single dose (10 µM) SRB screen; type: cell-based, human; conditions: colon cancer, 48 h
[28] = test system: SNB-75; assay: NCI single dose (10 µM) SRB screen; type: cell-based, human; conditions: CNS cancer, 48 h
[29] = test system: HOP-62; assay: NCI single dose (10 µM) SRB screen; type: cell-based, human; conditions: non-small cell lung cancer, 48 h
[30] = test system: LOX IMVI; assay: NCI single dose (10 µM) SRB screen; type: cell-based, human; conditions: melanoma, 48 h
[31] = test system: SR; assay: NCI single dose (10 µM) SRB screen; type: cell-based, human; conditions: leukaemia, 48 h
[32] = test system: IGROV1; assay: NCI single dose (10 µM) SRB screen; type: cell-based, human; conditions: ovarian cancer, 48 h
[33] = test system: NCI-H522; assay: NCI single dose (10 µM) SRB screen; type: cell-based, human; conditions: non-small cell lung cancer, 48 h
[34] = test system: CCRF-CEM; assay: NCI single dose (10 µM) SRB screen; type: cell-based, human; conditions: leukaemia, 48 h
[35] = test system: Pseudomonas aeruginosa; assay: Agar well diffusion method
[36] = test system: SK-MEL-5; assay: NCI single dose (10 µM) SRB screen; type: cell-based, human; conditions: melanoma, 48 h
[37] = test system: NCI-H23; assay: NCI single dose (10 µM) SRB screen; type: cell-based, human; conditions: non-small cell lung cancer, 48 h
[38] = test system: Staphylococcus aureus; assay: Agar well diffusion method
[39] = test system: HS578T; assay: NCI single dose (10 µM) SRB screen; type: cell-based, human; conditions: breast cancer, 48 h
[40] = test system: SNB-19; assay: NCI single dose (10 µM) SRB screen; type: cell-based, human; conditions: CNS cancer, 48 h
[41] = test system: SF-268; assay: NCI single dose (10 µM) SRB screen; type: cell-based, human; conditions: CNS cancer, 48 h
[42] = test system: MDA-MB-435; assay: NCI single dose (10 µM) SRB screen; type: cell-based, human; conditions: melanoma, 48 h
[43] = test system: M14; assay: NCI single dose (10 µM) SRB screen; type: cell-based, human; conditions: melanoma, 48 h
[44] = test system: 786-0; assay: NCI single dose (10 µM) SRB screen; type: cell-based, human; conditions: renal cancer, 48 h
[45] = test system: HT29; assay: NCI single dose (10 µM) SRB screen; type: cell-based, human; conditions: colon cancer, 48 h
[46] = test system: MDA-MB-468; assay: NCI single dose (10 µM) SRB screen; type: cell-based, human; conditions: breast cancer, 48 h
[47] = test system: TK-10; assay: NCI single dose (10 µM) SRB screen; type: cell-based, human; conditions: renal cancer, 48 h
[48] = test system: Escherichia coli; assay: Agar well diffusion method; conditions: relative to ciprofloxacin
[49] = test system: NCI-H460; assay: NCI single dose (10 µM) SRB screen; type: cell-based, human; conditions: non-small cell lung cancer, 48 h
[50] = test system: DU-145; assay: NCI single dose (10 µM) SRB screen; type: cell-based, human; conditions: prostate cancer, 48 h
[51] = test system: SN12C; assay: NCI single dose (10 µM) SRB screen; type: cell-based, human; conditions: renal cancer, 48 h

CCOC(=O)C1=C(C)NC(C)=C(C(=O)OC(C)C)C1c1cccc(C#N)c1 (racemic) [Compound 2h, (±)-3-Ethyl 5-isopropyl 4-(3-cyanophenyl)-2,6-dimethyl-1,4-dihydropyridine-3,5-dicarboxylate]
Mean GI% [1]: 0% | GI% OVCAR-5 [2]: – (Only GI% ≥ 10 are shown) | GI% COLO 205 [3]: – (Only GI% ≥ 10 are shown) | GI% HCC-2998 [4]: – (Only GI% ≥ 10 are shown) | GI% SK-OV-3 [5]: – (Only GI% ≥ 10 are shown) | GI% KM12 [6]: – (Only GI% ≥ 10 are shown) | GI% RPMI-8226 [7]: – (Only GI% ≥ 10 are shown) | GI% MOLT-4 [8]: 11% | GI% MDA-MB-231 [9]: – (Only GI% ≥ 10 are shown) | GI% PC-3 [10]: 12% | GI% K-562 [11]: – (Only GI% ≥ 10 are shown) | zone of inhibition at 1000 µg/mL ([12]; Bacillus subtilis, 24 h, read-out: Diameter of inhibition zone, B. subtilis): 8 mm | % activity index, B. subtilis ([12]; relative to ciprofloxacin): 34.8% | GI% SW-620 [13]: – (Only GI% ≥ 10 are shown) | zone of inhibition at 1000 µg/mL ([14]; Candida albicans, 24 h, read-out: Diameter of inhibition zone, C. albicans): 8 mm | % activity index, C. albicans ([14]; relative to clotrimazole): 29.6% | GI% HCT-15 [15]: – (Only GI% ≥ 10 are shown) | GI% SF-295 [16]: – (Only GI% ≥ 10 are shown) | GI% HOP-92 [17]: – (Only GI% ≥ 10 are shown) | GI% SK-MEL-2 [18]: – (Only GI% ≥ 10 are shown) | GI% T-47D [19]: – (Only GI% ≥ 10 are shown) | GI% NCI/ADR-RES [20]: – (Only GI% ≥ 10 are shown) | GI% NCI-H226 [21]: – (Only GI% ≥ 10 are shown) | GI% SK-MEL-28 [22]: – (Only GI% ≥ 10 are shown) | GI% U251 [23]: – (Only GI% ≥ 10 are shown) | GI% MALME-3M [24]: – (Only GI% ≥ 10 are shown) | GI% OVCAR-3 [25]: – (Only GI% ≥ 10 are shown) | GI% EKVX [26]: – (Only GI% ≥ 10 are shown) | GI% HCT-116 [27]: – (Only GI% ≥ 10 are shown) | GI% SNB-75 [28]: 15% | GI% HOP-62 [29]: – (Only GI% ≥ 10 are shown) | GI% LOX IMVI [30]: – (Only GI% ≥ 10 are shown) | GI% SR [31]: – (Only GI% ≥ 10 are shown) | GI% IGROV1 [32]: – (Only GI% ≥ 10 are shown) | GI% NCI-H522 [33]: – (Only GI% ≥ 10 are shown) | GI% CCRF-CEM [34]: – (Only GI% ≥ 10 are shown) | zone of inhibition at 1000 µg/mL ([35]; Pseudomonas aeruginosa, 24 h, read-out: Diameter of inhibition zone, P. aeruginosa): 10 mm | % activity index, P. aeruginosa ([35]; relative to ciprofloxacin): 43.5% | GI% SK-MEL-5 [36]: – (Only GI% ≥ 10 are shown) | GI% NCI-H23 [37]: – (Only GI% ≥ 10 are shown) | zone of inhibition at 1000 µg/mL ([38]; Staphylococcus aureus, 24 h, read-out: Diameter of inhibition zone, S. aureus): 11 mm | % activity index, S. aureus ([38]; relative to ciprofloxacin): 45.8% | GI% HS578T [39]: – (Only GI% ≥ 10 are shown) | GI% SNB-19 [40]: – (Only GI% ≥ 10 are shown) | GI% SF-268 [41]: – (Only GI% ≥ 10 are shown) | GI% MDA-MB-435 [42]: – (Only GI% ≥ 10 are shown) | GI% M14 [43]: – (Only GI% ≥ 10 are shown) | GI% 786-0 [44]: – (Only GI% ≥ 10 are shown) | GI% HT29 [45]: – (Only GI% ≥ 10 are shown) | GI% MDA-MB-468 [46]: 20% | GI% TK-10 [47]: – (Only GI% ≥ 10 are shown) | % activity index, E. coli [48]: – (Values below 25 are of limited value and not shown as they refer either to inactive or non-diffusing compounds) | GI% NCI-H460 [49]: – (Only GI% ≥ 10 are shown) | GI% DU-145 [50]: – (Only GI% ≥ 10 are shown) | GI% SN12C [51]: – (Only GI% ≥ 10 are shown)

From paper PMC9481151, “Discovery of new symmetrical and asymmetrical nitrile-containing 1,4-dihydropyridine derivatives as dual kinases and P-glycoprotein inhibitors: synthesis, in vitro assays, and in silico studies” (Journal of Enzyme Inhibition and Medicinal Chemistry, 2022)
